The record followed here is patent US11779620B2 (priority 2020, dated 2023).

Test [1] concerns human PBMC cultures. Description: Induction of CD69 activation marker on immune cell subsets in PBMC cultures (Trametes versicolor study). It is filed as cell-based. The conditions noted are these: 24 h, positive controls LPS 10 ng/mL, IL-2 100 IU/mL, mean±SD.
Test [2] deals with human PBMC cultures. As to the kind of experiment: Cytokine, chemokine and growth factor levels in PBMC culture supernatants (medicinal mushroom blend study). It is filed as cell-based. Particulars: LPS-treated control cultures (10 ng/mL), 24 h, mean±SD. The procedure:
The powder was handled in the following manner, using pyrogen-free disposables: A 100 mg/mL suspension was prepared in phosphate-buffered saline (PBS) and allowed to rehydrate and extract aqueous compounds for 1 hour at 20° C. under gentle agitation. The suspension was centrifuged at 400 g for 10 minutes, and the aqueous fraction harvested. Ethanol (95%) was added to the pellet and vortexed, and extraction of non-aqueous, ethanol-soluble compounds allowed for 1 hour at 20° C. under gentle agitation. The suspension was centrifuged at 400 g for 10 minutes, and the ethanol fraction harvested. The remaining solid pellet was resuspended in PBS. The aqueous and ethanol fractions were filtered through a 0.22-micron syringe filter before adding to cell cultures. The solid fraction was passed through homogenization spin columns (QIAshredder, Qiagen, […].), but were not filtered through a 0.22-micron filter. From each fraction, serial dilutions were made in pyrogen-free physiological saline. See also FIG. 9.
Peripheral venous blood was drawn from three healthy human donors upon written informed consent, as approval by the Sky Lakes Medical Center Institutional Review Board, Federalwide Assurance 2603. The blood was drawn into heparin vacutainer vials, and the peripheral blood mononuclear cells (PBMC) isolated using Lympholyte Poly by centrifugation for 35 minutes at 400×g. The PBMC were washed twice in PBS, counted, and the density adjusted to establish cultures with a cell density of 10^6/mL, using Roswell Park Memorial Institute (RPMI) 1640 medium containing penicillin, streptomycin, and fetal bovine serum.
The highly inflammatory lipopolysaccharide (LPS) from Salmonella enterica was used as a positive control for immune-cell activation. Serial dilutions of products or LPS (10 ng/mL) were added to cultures at a volume of 20 μL, and cultures were then incubated at 37° C., 5% CO2 for 24 hours. […] Untreated negative control cultures consisted of PBMC exposed to phosphate-buffered saline in the absence of test products. All treatments, including each dose of test product and each positive and negative control, were tested in triplicate. After 24 hours, cells were transferred to V-bottom microtiter plates, washed in PBS containing bovine serum albumin and sodium azide, and stained for 10 minutes with fluorochrome-labeled anti-CD3, anti-CD56, and anti-CD69 monoclonal antibodies at the recommended concentration. PBMC were then fixed in formalin. The fluorescence intensities for CD3, CD56, and CD69 were measured by flow cytometry, using an Attune acoustic-focusing flow cytometer (Thermo Fisher Scientific, Waltham, Mass., USA). Data analysis utilized gating on forward and side scatter to evaluate CD69 expression on lymphocyte versus monocyte/macrophage subsets. The lymphocyte subpopulation was further analyzed for CD69 expression on CD3−CD56+ NK cells, CD3+CD56+ NKT cells, CD3+CD56− T cells, and non-NK non-T lymphocytes.
After 24 hours of incubation, after transfer to V-bottom microtiter plates and before cells were stained for flow cytometry analysis, the culture supernatants were harvested from the PBMC cultures described above. Levels of cytokines, chemokines, and growth factors were quantified using Bio-Plex protein arrays (Bio-Rad Laboratories Inc., Hercules Calif., USA) and utilizing xMAP technology (Luminex, Austin, Tex., USA).

Consider lipopolysaccharide [LPS], for which, in test [1], the “CD69 percent change compared to untreated control cultures, NK cells” value was determined as 114±10%; the “CD69 percent change compared to untreated control cultures, NKT cells” value turned out to be 54±8.3%; the “CD69 percent change compared to untreated control cultures, T lymphocytes” value was 19±2.1%. Also, in test [2], the G-CSF level is given as 1,458±58 pg/mL, the IFN-γ level turned out to be 71 ± 2 pg/mL, the IL-1ra level is on record as 8,134±473 pg/mL and the IL-1β level amounted to 772 ± 28 pg/mL. In test [2], the IL-10 level was 301 ± 15 pg/mL, the MCP-1 level is on record as 2,052±35 pg/mL, the MIP-1α level is 2,116±0 pg/mL and the MIP-1β level is given as 6,497±814 pg/mL. For the same substance, in test [2], the TNF-α level is listed as 7,073±185 pg/mL, the VEGF level was 421 ± 17 pg/mL and the bFGF level stood at 221 ± 8 pg/mL.
